Tests used:
[1] = target: T1, Estrogen receptor (Homo sapiens, UniProt P03372)
T1 sequence (P03372 whole entry): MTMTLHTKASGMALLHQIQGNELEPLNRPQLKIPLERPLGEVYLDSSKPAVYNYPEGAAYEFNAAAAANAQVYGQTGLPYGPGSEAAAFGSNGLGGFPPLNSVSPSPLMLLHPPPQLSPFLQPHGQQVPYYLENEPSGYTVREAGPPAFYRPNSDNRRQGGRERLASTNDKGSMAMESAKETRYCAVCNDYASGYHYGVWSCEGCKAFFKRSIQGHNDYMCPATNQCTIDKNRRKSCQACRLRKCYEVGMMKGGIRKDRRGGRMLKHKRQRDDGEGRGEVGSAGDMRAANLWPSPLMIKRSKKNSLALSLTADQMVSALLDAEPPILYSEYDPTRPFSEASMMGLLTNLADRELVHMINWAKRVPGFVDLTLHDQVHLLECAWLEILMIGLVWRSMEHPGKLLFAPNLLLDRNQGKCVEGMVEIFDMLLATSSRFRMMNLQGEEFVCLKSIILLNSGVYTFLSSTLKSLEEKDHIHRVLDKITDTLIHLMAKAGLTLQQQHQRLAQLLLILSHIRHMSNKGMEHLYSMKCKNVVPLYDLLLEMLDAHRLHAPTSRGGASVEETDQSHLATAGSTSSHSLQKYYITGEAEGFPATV

[2] = target: T2, Mu-type opioid receptor (Homo sapiens, UniProt P35372); experiment: biochemical; assay type: functional
T2 sequence (P35372 whole entry): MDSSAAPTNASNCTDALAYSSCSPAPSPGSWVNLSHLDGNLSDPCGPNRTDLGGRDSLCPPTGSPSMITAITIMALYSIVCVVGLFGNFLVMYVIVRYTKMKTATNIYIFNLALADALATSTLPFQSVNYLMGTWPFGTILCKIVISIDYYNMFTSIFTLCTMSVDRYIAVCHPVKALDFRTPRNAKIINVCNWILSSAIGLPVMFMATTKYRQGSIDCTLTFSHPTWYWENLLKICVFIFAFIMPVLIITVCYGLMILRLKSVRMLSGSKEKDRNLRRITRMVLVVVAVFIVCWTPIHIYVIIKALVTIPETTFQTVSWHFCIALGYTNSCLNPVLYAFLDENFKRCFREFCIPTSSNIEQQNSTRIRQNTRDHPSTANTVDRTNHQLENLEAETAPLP

[3] = target: T3, 5-hydroxytryptamine receptor 1A (Homo sapiens, UniProt P08908); assay type: functional, cell-based
T3 sequence (P08908 whole entry): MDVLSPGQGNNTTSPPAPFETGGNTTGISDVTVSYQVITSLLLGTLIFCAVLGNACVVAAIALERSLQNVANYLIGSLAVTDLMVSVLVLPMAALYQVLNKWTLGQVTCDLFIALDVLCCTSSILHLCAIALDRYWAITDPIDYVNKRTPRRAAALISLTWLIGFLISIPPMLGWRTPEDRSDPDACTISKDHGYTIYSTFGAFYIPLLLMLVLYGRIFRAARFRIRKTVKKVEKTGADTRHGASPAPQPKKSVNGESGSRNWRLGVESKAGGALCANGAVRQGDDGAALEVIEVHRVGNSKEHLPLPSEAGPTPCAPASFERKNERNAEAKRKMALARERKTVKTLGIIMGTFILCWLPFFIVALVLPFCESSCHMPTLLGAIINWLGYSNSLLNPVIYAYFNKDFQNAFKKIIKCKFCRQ

[4] = target: Neuronal acetylcholine receptor subunit alpha-4 (Homo sapiens, UniProt P43681)
Sequence of Neuronal acetylcholine receptor subunit alpha-4 (P43681 whole entry): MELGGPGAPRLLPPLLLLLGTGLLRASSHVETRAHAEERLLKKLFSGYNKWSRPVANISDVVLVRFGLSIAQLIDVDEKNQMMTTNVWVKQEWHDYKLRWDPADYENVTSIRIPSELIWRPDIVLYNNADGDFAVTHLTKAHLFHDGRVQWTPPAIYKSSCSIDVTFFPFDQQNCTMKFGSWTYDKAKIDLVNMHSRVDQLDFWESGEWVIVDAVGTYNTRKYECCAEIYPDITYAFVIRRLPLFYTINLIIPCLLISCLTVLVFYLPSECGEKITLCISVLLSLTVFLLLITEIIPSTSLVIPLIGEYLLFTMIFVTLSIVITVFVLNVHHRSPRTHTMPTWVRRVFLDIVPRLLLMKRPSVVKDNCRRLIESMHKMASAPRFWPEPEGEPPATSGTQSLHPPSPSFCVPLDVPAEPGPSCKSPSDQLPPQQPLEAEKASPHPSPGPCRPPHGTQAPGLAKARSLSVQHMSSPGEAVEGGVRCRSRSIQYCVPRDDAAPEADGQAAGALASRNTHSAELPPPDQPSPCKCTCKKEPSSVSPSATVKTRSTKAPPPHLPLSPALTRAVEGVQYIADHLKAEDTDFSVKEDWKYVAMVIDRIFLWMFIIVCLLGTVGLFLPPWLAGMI

[5] = target: T4, Adenosine receptor A1 (Homo sapiens, UniProt P30542)
T4 sequence (P30542 whole entry): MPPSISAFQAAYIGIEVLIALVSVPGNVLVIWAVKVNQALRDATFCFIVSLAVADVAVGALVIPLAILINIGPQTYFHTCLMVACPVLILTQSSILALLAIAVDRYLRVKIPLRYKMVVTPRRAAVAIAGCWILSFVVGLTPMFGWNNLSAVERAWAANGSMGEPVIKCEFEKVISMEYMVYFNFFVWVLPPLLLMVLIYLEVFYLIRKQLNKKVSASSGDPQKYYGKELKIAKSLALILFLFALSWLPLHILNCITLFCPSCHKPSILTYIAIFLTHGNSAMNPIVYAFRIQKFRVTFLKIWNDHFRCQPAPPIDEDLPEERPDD

[6] = target: Glutamate receptor ionotropic, NMDA 1 (Rattus norvegicus, UniProt P35439)
[7] = target: Voltage-gated inwardly rectifying potassium channel KCNH2 (Homo sapiens, UniProt Q12809); assay type: functional; settings: read-out: AC50
Sequence of Voltage-gated inwardly rectifying potassium channel KCNH2 (Q12809 whole entry): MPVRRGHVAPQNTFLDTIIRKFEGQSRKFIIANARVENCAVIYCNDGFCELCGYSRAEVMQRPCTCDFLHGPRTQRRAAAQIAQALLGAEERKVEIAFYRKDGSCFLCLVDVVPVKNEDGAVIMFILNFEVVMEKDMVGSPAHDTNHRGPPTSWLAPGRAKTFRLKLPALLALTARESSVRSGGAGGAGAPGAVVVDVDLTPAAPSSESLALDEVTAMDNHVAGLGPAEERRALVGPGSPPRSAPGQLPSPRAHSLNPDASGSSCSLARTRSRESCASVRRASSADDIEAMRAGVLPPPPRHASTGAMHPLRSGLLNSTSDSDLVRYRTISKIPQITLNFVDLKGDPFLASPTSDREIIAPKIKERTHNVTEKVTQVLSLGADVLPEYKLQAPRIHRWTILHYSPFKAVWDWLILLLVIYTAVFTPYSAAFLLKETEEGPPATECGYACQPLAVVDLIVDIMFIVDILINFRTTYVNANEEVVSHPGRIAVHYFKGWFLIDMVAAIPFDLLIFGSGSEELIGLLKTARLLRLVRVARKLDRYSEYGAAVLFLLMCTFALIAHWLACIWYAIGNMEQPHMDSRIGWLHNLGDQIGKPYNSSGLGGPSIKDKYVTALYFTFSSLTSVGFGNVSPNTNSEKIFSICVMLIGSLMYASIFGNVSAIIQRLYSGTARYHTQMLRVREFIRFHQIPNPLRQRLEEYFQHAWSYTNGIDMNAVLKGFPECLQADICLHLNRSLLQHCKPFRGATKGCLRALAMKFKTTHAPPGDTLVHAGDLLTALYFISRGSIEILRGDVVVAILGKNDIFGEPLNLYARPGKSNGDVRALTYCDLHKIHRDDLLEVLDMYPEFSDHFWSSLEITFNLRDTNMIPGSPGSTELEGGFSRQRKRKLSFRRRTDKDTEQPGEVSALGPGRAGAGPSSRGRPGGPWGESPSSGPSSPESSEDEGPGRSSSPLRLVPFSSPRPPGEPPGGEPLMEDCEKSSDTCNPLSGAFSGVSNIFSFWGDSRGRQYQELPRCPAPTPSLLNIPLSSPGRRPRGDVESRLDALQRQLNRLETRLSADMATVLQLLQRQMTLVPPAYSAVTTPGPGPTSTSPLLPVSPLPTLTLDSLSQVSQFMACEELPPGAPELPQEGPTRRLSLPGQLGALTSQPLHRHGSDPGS

[8] = target: T5, 5-hydroxytryptamine receptor 3A (Homo sapiens, UniProt P46098); assay type: functional
T5 sequence (P46098 whole entry): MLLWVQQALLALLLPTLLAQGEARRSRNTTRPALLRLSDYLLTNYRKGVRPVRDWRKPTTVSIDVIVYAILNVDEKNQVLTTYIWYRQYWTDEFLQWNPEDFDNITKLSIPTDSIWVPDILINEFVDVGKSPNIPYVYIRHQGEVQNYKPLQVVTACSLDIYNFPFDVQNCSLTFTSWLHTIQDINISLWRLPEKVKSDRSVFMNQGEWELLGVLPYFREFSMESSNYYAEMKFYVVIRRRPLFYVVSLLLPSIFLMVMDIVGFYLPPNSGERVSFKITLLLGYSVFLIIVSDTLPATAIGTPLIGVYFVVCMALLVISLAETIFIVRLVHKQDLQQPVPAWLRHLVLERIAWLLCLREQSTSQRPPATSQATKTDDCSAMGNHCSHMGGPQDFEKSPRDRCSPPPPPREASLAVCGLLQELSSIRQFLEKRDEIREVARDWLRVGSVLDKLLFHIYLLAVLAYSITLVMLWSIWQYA

[9] = target: T2, Mu-type opioid receptor
[10] = target: Melanocortin receptor 4 (Homo sapiens, UniProt P32245)
Sequence of Melanocortin receptor 4 (P32245 whole entry): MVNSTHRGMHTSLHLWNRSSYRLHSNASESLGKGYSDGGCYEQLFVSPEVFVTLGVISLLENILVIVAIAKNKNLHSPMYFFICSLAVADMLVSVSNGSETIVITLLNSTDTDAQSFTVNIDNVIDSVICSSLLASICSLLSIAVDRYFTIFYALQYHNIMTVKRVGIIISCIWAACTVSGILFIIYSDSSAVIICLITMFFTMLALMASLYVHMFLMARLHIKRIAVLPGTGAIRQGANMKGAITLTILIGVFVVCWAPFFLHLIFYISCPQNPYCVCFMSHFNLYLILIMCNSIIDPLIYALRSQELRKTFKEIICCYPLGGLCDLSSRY

[11] = target: Cannabinoid receptor 1 (Homo sapiens, UniProt P21554)
Sequence of Cannabinoid receptor 1 (P21554 whole entry): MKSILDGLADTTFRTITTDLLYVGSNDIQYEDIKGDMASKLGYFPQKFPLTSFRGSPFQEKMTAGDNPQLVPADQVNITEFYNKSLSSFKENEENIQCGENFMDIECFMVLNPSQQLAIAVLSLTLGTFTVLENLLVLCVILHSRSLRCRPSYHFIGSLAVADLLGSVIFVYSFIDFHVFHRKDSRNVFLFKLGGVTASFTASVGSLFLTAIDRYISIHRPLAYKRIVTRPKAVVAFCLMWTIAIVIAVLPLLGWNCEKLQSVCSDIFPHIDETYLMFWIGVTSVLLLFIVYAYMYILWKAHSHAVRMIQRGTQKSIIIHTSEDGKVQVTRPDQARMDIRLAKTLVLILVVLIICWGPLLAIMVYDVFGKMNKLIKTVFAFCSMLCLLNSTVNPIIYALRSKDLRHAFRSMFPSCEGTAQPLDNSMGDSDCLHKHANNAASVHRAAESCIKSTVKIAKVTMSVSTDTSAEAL
Note: assay procedure not described here.

Row | SMILES | AC50 [1] [µM] | AC50 [2] [µM] | AC50 [3] [µM] | AC50 [4] [µM] | AC50 [5] [µM] | AC50 [6] [µM] | AC50 [7] [µM] | AC50 [8] [µM] | AC50 [9] [µM] | AC50 [10] [µM] | AC50 [11] [µM]
1 | Cc1cc2c(OCC(CNC(C)(C)C)OC(=O)c3ccccc3)cccc2[nH]1 (stereo not given) [BOPINDOLOL] | > 30 | > 30 | > 30 | > 30 | > 30 | > 30 | 0.49 | > 30 |  |  | 
2 | COc1ccc(C(=O)NCc2ccc(OCCN(C)C)cc2)cc1OC [ITOPRIDE] | > 30 | > 30 | > 30 | > 30 | > 30 | > 30 | > 30 | > 30 |  |  | 
3 | CCNC(C)Cc1cccc(C(F)(F)F)c1 (stereo not given) [FENFLURAMINE] | > 30 |  |  | > 10 | > 30 | > 10 | > 30 | > 30 | > 30 | > 30 | > 10
4 | Cc1c(O)c(=O)ccn1C [DEFERIPRONE] | > 30 | > 30 | > 30 | > 30 | > 30 | > 30 | > 30 | > 30 |  |  | 
5 | COc1ccc2c(c1)c(CC(=O)OCC(=O)O)c(C)n2C(=O)c1ccc(Cl)cc1 [ACEMETACIN] |  | > 30 | > 30 | > 30 | > 30 | > 30 | > 30 | > 30 |  |  | 
6 | CC[C@]1(O)C[C@@H]2CN(CCc3c([nH]c4ccccc34)[C@@](C(=O)OC)(c3cc4c(cc3OC)N(C)[C@H]3[C@@](O)(C(N)=O)[C@H](O)[C@]5(CC)C=CCN6CC[C@]43[C@@H]65)C2)C1 [VINDESINE] | > 30 | > 30 | > 30 | > 30 | > 30 | > 30 | 14.9 | > 30 |  |  | > 30
7 | CC(C)(Oc1ccc(C2CC2(Cl)Cl)cc1)C(=O)O (stereo not given) [CIPROFIBRATE] | > 30 | > 30 | > 30 | > 30 | > 30 | > 30 | > 30 | > 30 |  |  | 
8 | O=C(C[S+]([O-])C(c1ccccc1)c1ccccc1)NO (stereo not given) | > 30 | > 30 | > 30 | > 30 | > 30 | > 30 | > 30 | > 30 |  |  | 
9 | CCCCCCCCOc1ccccc1C(=O)Nc1ccc(C(=O)OCC[N+](C)(CC)CC)cc1 [OTILONIUM BROMIDE] | > 30 | > 30 | 11 | > 30 | > 30 | > 30 | 0.66 | > 30 |  |  | 
10 | COC(=O)[C@H]1[C@@H](OC(=O)c2ccccc2)C[C@@H]2CC[C@H]1N2C [COCAINE] | > 30 | > 30 | > 30 | > 30 | > 30 | > 30 |  | > 30 |  |  | 
